Results as given in patent US20160340656A1, “PEPTIDES DERIVED FROM GSE 24.2 FOR TREATING DISEASES CAUSED BY OXIDATIVE STRESS AND DAMAGE TO DNA” (CONSEJO SUPERIOR DE INVESTIGACIONES CIENTÍFICAS (CSIC), priority 2013, published 2016).

Columns and labels:
AT cells (AT3784) = assay: Damage to DNA in AT cells: pCHK2 Thr68 foci after lentiviral expression of GSE24.2; assay type: cell-based, human
Description: FIG. 2. Determination of damage to DNA in AT cells: AT3784 AT cells were infected with a lentiviral vector expressing GSE24.2 or a GFP empty vector and were fixed 24 hours later to be processed and hybridised with an antibody against the kinase pCHK2[…]. Control C-1787 cells were used as the negative control. Next they were hybridised with a fluorescein-labelled antibody and were stained with DAPI to locate the nuclei. […] Therefore expression of GSE24.2 is able to correct damage to DNA in 28% of cells, confirming the data obtained with phosphorylated histone H2AX.

AT3189-P AT lymphoblasts = assay: ROS levels by DHE and flow cytometry in AT lymphoblasts; assay type: cell-based, human; conditions: AT3189-P cells, three weeks after infection, DHE, versus AT736C control cells
Description: FIG. 3. Determination of ROS levels in AT cells: AT3189-P AT cells were infected with a lentiviral vector expressing GSE24.2 or a GFP empty vector and three weeks later were loaded with the DHE reagent that detects Reactive Oxygen Species (ROS) levels. AT736C cells were used as a control. Relative fluorescence of the three cell lines and the proportion of cells with maximum intensity were determined through flow cytometry using wavelengths of 518 nm absorption and 605 nm emission. The data are shown as relative percentage of cells that emit at this wavelength.
One of the characteristics of AT cells is an increase in free radical content. This is due to the failure of function of protein ATM, which is able to maintain the redox balance in normal cells when the cells are exposed to environmental stress such as in vitro culture. In order to verify if expression of GSE24.2 has some impact on the regulation of free radical levels, we used the compound dihydroethidium (Hydroethidine), which enables quantifying the levels of free radicals in living cells. […] Three weeks after infection, the cells were loaded with the DHE reagent for 30 minutes and the proportion of cells with different free radical content was determined by flow cytometry.

[1] = tested on: AT2078 cells of patients with ataxia telangiectasia; assay: Damage to DNA in AT2078 cells: histone H2AX Ser139 foci after expression of GSE4 or SGSE4; assay type: cell-based, human
Description: FIG. 14. Determination of damage to DNA in AT cells after transfecting peptides GSE4 and SGSE4: AT2078 AT cells were infected with a lentiviral vector expressing GSE4, SGSE4 or a GFP empty vector and 24 hours later were fixed for processing and hybridised with an antibody against phosphorylated histone H2AX (Ser139). Control C-1787 cells were used as the negative control. Next they were hybridised with a fluorescein-labelled antibody and were stained with DAPI to locate the nuclei.
As the peptide denominated GSE4 was the smallest sized of the peptides with ability to inhibit damage to DNA, we studied if another peptide with a similar sequence localised in the sequence of peptide GSE24.2 had the same activity or if that activity was specific to GSE4. Peptide SGSE4 (SEQ ID No. 15) is similar to GSE4 in sequence (amino acids LDPK/LDKP that constitute consensus sequences for pseudouridine synthases) and size and is found in the TRUBII domain of dyskerin. Cell lines AT2078 of patients with ataxia telangiectasia were used for this test. Cell line C-1787 was used as the control cell line. The cells were infected with the bicistronic lentiviral vector pCMV-GFP-GSE4, SGSE4 or GFP. After 48 hours of infection the cells were fixed with formaldehyde and then permeabilized by treating them with Triton X-100. The damage to DNA was estimated by studying the signal after hybridisation of the cells with an antibody against histone H2AX Ser139 and subsequent hybridisation with an antibody bound to fluorescein. The number of foci with stain for histone H2AX per nucleus was determined by confocal microscopy in a total of 200 cells and the data represented as a percentage of cells with a specific number of foci.

[2] = tested on: telomerase activity in VA13 cells; assay: Telomerase activity (TRAP assay) in VA13 cells after peptide transfection; assay type: cell-based; conditions: 8 μg peptide
Description: FIG. 10. Determination of telomerase activity in VA13 cells after transfection of the peptides GSE4 and GSE5. In order to determine the effect of expression of peptides GSE4 and GSE5, VA13 cells were transfected through lipofection and 24 hours later a TRAP assay was performed for telomerase activity.
The other way of quantifying the activity of peptide GSE4 was to evaluate its ability to increase telomerase activity in VA13 cells. To do this, these cells were transfected with 8 μg of the two peptides GSE4 and GSE5. […], the cells were processed to test the telomerase activity by the TRAP method.

Sequence: GFINLDKPSNPSSHEVVAWIRRILRVEKTGHSGTLDPKVTGCLIVCIERATRLVK (GSE24.2; listed as Homo sapiens) [55-amino-acid peptide corresponding to the protein dyskerin; known from WO2007/090911]
- cells in which damage to DNA is corrected (AT cells (AT3784)): 28%
- fewer AT cells showing basal damage (AT cells (AT3784); after expressing GSE24.2): 25%
- reduction of high levels of damage to DNA (AT cells (AT3784); after expressing GSE24.2): 13%
- ROS levels (AT3189-P AT lymphoblasts): reduced in AT3189-P GSE24.2 cells to values comparable to those found in the AT736C control cells

Sequence: GFINLDKPSNP [GSE4]
- overall correction of damage to DNA [1]: 60%
- AT cells in which overall damage to DNA is corrected ([1]; 200 cells): 38%
- reactivation of telomerase activity [2]: much higher activity in reactivating telomerase activity
